Test results as given in patent EP4737445A1, “NOVEL SATURATED HETEROCYCLE-SUBSTITUTED HETEROARYL-CARBONOHYDRAZONOYL DICYANIDE COMPOUND AND USE THEREOF” (Korea Institute of Science and Technology, priority 2023, dated 2025).
Read-outs that look alike come from different tables or passages of the source.

Columns and labels:
[1] = biological target: T1, Tau (Homo sapiens, UniProt P10636); experiment: Tau aggregation inhibition in Tau-BiFC cell model (Forskolin-induced); format: cell-based
T1 construct: BiFC fluorescent-protein fragments (two complementary halves on two tau copies); expressed in transfected cells
T1 sequence (P10636 1-441 isoform P10636-8): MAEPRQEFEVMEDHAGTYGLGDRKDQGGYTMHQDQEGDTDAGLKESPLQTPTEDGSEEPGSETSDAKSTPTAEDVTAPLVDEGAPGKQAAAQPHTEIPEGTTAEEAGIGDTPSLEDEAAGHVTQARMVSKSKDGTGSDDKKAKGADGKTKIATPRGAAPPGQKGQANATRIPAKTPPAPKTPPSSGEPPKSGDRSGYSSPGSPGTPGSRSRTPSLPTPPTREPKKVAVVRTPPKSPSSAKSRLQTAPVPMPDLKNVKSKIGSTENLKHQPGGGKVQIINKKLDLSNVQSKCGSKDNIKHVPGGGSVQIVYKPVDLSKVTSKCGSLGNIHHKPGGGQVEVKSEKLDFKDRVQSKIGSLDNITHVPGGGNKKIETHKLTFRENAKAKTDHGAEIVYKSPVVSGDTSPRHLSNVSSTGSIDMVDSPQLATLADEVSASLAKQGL
In short: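 Tau-BiFC cells were co-treated with compound (1, 3, 10 µM for screening; 0.03–30 µM for IC50) and 30 µM Forskolin for 48 h. BiFC fluorescence was normalised to the Forskolin-only window for aggregation; viability came from Hoechst-stained nuclei counts relative to Forskolin-only (100%). IC50 was derived by nonlinear regression.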

[2] = biological target: T2, TDP-43 protein (Homo sapiens, UniProt Q13148); experiment: TDP-43 aggregation inhibition in TDP-43-BiFC cell model (Forskolin-induced); format: cell-based; details: for inhibition at 3 µM: read-out: TDP-43 protein aggregation inhibitory effect: Aggregation inhibitory effect (%) (@3 uM)
T2 construct: BiFC fluorescent-protein fragments (two complementary halves); expressed in transfected cells
T2 sequence (Q13148 whole entry, the tested form may be a part): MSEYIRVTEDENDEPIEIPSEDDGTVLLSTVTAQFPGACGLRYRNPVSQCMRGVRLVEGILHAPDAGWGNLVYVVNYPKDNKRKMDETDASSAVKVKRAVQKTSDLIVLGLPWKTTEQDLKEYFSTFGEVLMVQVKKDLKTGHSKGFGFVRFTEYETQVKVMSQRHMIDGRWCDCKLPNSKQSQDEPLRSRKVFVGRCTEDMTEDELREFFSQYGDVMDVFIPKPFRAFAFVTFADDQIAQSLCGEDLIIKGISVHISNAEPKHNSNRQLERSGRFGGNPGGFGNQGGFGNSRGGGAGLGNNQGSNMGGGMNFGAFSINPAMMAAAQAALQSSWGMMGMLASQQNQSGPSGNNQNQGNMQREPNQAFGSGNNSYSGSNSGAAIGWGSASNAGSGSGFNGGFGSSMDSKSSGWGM
In short: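 Forskolin (30 µM) co-treated with compound (screen 3 and 10 µM; dose-response 0.003–10 µM) for 48 h. BiFC fluorescence normalised to Forskolin-only (100% aggregation) minus untreated; viability from Hoechst-stained nuclei count vs Forskolin-only. IC50 by nonlinear regression.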

[3] = biological target: T3, CYP3A4 (Homo sapiens, UniProt P08684); experiment: CYP isoenzyme activity inhibition in human liver microsomes, CYP3A4; format: in vitro ADME; details: 10 µM compound; human liver microsomes 0.25 mg/mL; relative to control without compound
T3 construct: human liver microsomes (0.25 mg/mL); from tissue; host or cells: human liver microsomes
T3 sequence (P08684 whole entry): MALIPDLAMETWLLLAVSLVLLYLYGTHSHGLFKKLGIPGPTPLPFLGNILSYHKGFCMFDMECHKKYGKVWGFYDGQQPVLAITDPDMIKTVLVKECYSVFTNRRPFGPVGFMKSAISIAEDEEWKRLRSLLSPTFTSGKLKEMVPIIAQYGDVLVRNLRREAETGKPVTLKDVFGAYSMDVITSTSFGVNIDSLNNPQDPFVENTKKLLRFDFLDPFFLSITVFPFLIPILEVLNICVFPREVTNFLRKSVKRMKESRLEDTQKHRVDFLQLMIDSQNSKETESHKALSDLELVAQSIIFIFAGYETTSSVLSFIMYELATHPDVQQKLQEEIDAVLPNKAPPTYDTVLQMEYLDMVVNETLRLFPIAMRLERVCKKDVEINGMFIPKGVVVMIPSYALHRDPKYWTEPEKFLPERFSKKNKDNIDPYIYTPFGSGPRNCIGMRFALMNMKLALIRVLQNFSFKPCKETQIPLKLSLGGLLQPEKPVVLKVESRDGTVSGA
Protocol: The CYP isoenzyme activity inhibitory effect by the compounds prepared according to Examples 1 to 46 was confirmed. Specifically, human liver microsomes (0.25 mg/mL), 0.1 M phosphate buffer solution (pH 7.4), a substrate drug cocktail of five drug metabolizing enzymes (Phenacetin 50 µM, Diclofenac 10 µM, S-mephenytoin 100 µM, Dextromethorphan 5 µM, and Midazolam 2.5 µM), and the compounds were added at concentrations of 0 or 10 µM, respectively, and pre-incubated at 37°C for 5 minutes, and then NADPH generation system solution was added and incubated at 37°C for an additional 15 minutes. Thereafter, an acetonitrile solution containing an internal standard (Terfenadine) was added to terminate the reaction, and after centrifugation for 5 minutes (14,000 rpm, 4°C), the supernatant was injected into an LC-MS/MS system to simultaneously analyze the metabolites of the substrate drugs, thereby evaluating the drug metabolizing enzyme inhibitory activity.
The metabolites of each CYP isoenzyme marker drug generated through the reaction were analyzed using a Shimadzu Nexera XR system and TSQ vantage (Thermo). A Kinetex C18 (2.1 × 100 mm, 2.6 µm, particle size; Phenomenex, USA) was used as the HPLC column, and (A) distilled water containing 0.1% formic acid and (B) acetonitrile containing 0.1% formic acid were used as mobile phases, and a gradient program as shown in Table 6 below was applied.
The generated metabolites were quantified using MRM (Multiple Reaction Monitoring) quantitative mode, and Xcalibur (version 1.6.1) was used for data analysis. To show the CYP isoenzyme activity inhibitory effect of the novel compounds prepared according to the Examples of the disclosure, the % activity of CYP isoenzymes relative to the control group without compound addition is shown in Table 6 below. Additionally, to confirm the difference in effect according to substituents, Comparative Compounds 1 and 5, which are two compounds that share a similar parent nucleus structure with Compounds 1 to 46 of the disclosure while Cy is substituted with aromatic heteroaryl instead of saturated heterocyclyl, were selected as comparative compounds and their activities are shown together.

## N#CC(C#N)=NNc1ccc2nc(N3C4CCC3COC4)sc2c1 [Compound 11, (2-(3-oxa-8-azabicyclo[3.2.1]octan-8-yl)benzo[d]thiazol-6-yl)carbonohydrazonoyl dicyanide]
[1]
  IC50: 32 nM
[2]
  inhibition at 3 µM: 100%
[3]
  CYP3A4 (% activity): 78.4 % activity

## Cn1c(N2CCOCC2)nc2cc(NN=C(C#N)C#N)ccc21 [Compound 6, (1-methyl-2-morpholino-1H-benzo[d]imidazol-5-yl)carbonohydrazonoyl dicyanide]
[1]
  IC50: 24 nM
[2]
  inhibition at 3 µM: 97.4%
[3]
  CYP3A4 (% activity): 96.7 % activity

## N#CC(C#N)=NNc1ccc2nc(N3CC4CCC(C3)O4)oc2c1 [Compound 26, (2-(8-oxa-3-azabicyclo[3.2.1]octan-3-yl)benzo[d]oxazol-6-yl)carbonohydrazonoyl dicyanide]
[1]
  IC50: 10 nM
[2]
  IC50: 248 nM
  inhibition at 3 µM: 94.8%
[3]
  CYP3A4 (% activity): 81.3 % activity

## N#CC(C#N)=NNc1ccc2nc(N3CC[C@@H](F)C3)oc2c1 [Compound 41, (R)-(2-(3-fluoropyrrolidin-1-yl)benzo[d]oxazol-6-yl)carbonohydrazonoyl dicyanide]
[1]; read-out: Tau aggregation inhibitory effect IC50, Tau-BiFC cell line, Forskolin 30 µM, 48 hours, 0.03-30 µM
  IC50: 260 nM
[2]
  inhibition at 3 µM: 87.8%
[3]
  CYP3A4 (% activity): 86.5 % activity

## CC1COCCN1c1nc2ccc(NN=C(C#N)C#N)cc2o1 (centres unmarked) [Compound 16, (2-(3-methylmorpholino)benzo[d]oxazol-6-yl)carbonohydrazonoyl dicyanide]
[1]
  IC50: 49 nM
[2]
  inhibition at 3 µM: 100%
[3]
  CYP3A4 (% activity): 96.7 % activity

## Cn1c(N2C3CCC2COC3)nc2ccc(NN=C(C#N)C#N)cc21 [Compound 34, (2-(3-oxa-8-azabicyclo[3.2.1]octan-8-yl)-1-methyl-1H-benzo[d]imidazol-6-yl)carbonohydrazonoyl dicyanide]
[1]
  IC50: 12 nM
[2]
  IC50: 10 nM
  inhibition at 3 µM: 82.4%
[3]
  CYP3A4 (% activity): 84.3 % activity

## CC1CN(c2nc3ccc(NN=C(C#N)C#N)cc3s2)CCO1 (centres unmarked) [Compound 12, (2-(2-methylmorpholino)benzo[d]thiazol-6-yl)carbonohydrazonoyl dicyanide]
[1]
  IC50: 32 nM
[2]
  inhibition at 3 µM: 100%
[3]
  CYP3A4 (% activity): 78.9 % activity

## N#CC(C#N)=NNc1ccc2sc(N3CCOCC3)nc2c1 [Compound 1, (2-morpholinobenzo[d]thiazol-5-yl)carbonohydrazonoyl dicyanide]
[1]
  IC50: 12 nM
[2]
  inhibition at 3 µM: 78.1%
[3]
  CYP3A4 (% activity): 95.5 % activity

## CCn1c(N2CCOCC2)nc2cc(NN=C(C#N)C#N)ccc21 [Compound 33, (1-ethyl-2-morpholino-1H-benzo[d]imidazol-5-yl)carbonohydrazonoyl dicyanide]
[1]
  IC50: 4 nM
[2]
  IC50: 124 nM
  inhibition at 3 µM: 93.9%
[3]
  CYP3A4 (% activity): 75.4 % activity

## N#CC(C#N)=NNc1ccc2nc(N3C4CCC3COC4)oc2c1 [Compound 20, (2-(3-oxa-8-azabicyclo[3.2.1]octan-8-yl)benzo[d]oxazol-6-yl)carbonohydrazonoyl dicyanide]
[1]
  IC50: 11 nM
[2]
  IC50: 140 nM
  inhibition at 3 µM: 91.7%
[3]
  CYP3A4 (% activity): 55.4 % activity

## N#CC(C#N)=NNc1ccc2nc(N3CCOCC3)oc2c1 [Compound 4, (2-morpholinobenzo[d]oxazol-6-yl)carbonohydrazonoyl dicyanide]
[1]
  IC50: 56 nM
[2]
  inhibition at 3 µM: 100%
[3]
  CYP3A4 (% activity): 94 % activity

## CC1CN(C(=O)Nc2nc3ccc(NN=C(C#N)C#N)cc3s2)CC(C)O1 (centres unmarked) [Compound 39, (2-(2,6-dimethylmorpholine-4-carboxamido)benzo[d]thiazol-6-yl)carbonohydrazonoyl dicyanide]
[1]
  IC50: 44 nM
[2]
  inhibition at 3 µM: 58.7%
[3]
  CYP3A4 (% activity): 56.5 % activity

## COC1CCN(c2nc3ccc(NN=C(C#N)C#N)cc3o2)CC1 [Compound 17, (2-(4-methoxypiperidin-1-yl)benzo[d]oxazol-6-yl)carbonohydrazonoyl dicyanide]
[1]
  IC50: 88 nM
[2]
  inhibition at 3 µM: 100%
[3]
  CYP3A4 (% activity): 87.1 % activity

## CC(=O)N1CCN(c2nc3ccc(NN=C(C#N)C#N)cc3s2)CC1 [Compound 30, (2-(4-acetylpiperazin-1-yl)benzo[d]thiazol-6-yl)carbonohydrazonoyl dicyanide]
[1]
  IC50: 60 nM
[2]
  IC50: 146 nM
  inhibition at 3 µM: 88%
[3]
  CYP3A4 (% activity): 74.6 % activity

## CC1CN(c2nc3ccc(NN=C(C#N)C#N)cc3s2)CC(C)O1 (centres unmarked) [Compound 10, (2-(2,6-dimethylmorpholino)benzo[d]thiazol-6-yl)carbonohydrazonoyl dicyanide]
[1]
  IC50: 24 nM
[2]
  inhibition at 3 µM: 100%
[3]
  CYP3A4 (% activity): 74.5 % activity

## CC1COCCN1c1nc2ccc(NN=C(C#N)C#N)cc2s1 (centres unmarked) [Compound 13, (2-(3-methylmorpholino)benzo[d]thiazol-6-yl)carbonohydrazonoyl dicyanide]
[1]
  IC50: 20 nM
[2]
  inhibition at 3 µM: 100%
[3]
  CYP3A4 (% activity): 84.8 % activity
